We go through 1 compound from US9192619B2 (Peking University Third Hospital, priority 2010, dated 2015).

The test system of this experiment is permanent focal cerebral ischemia model (MCAO). Description: Permanent focal cerebral ischemia model by middle cerebral artery occlusion (MCAO), infarction size by TTC staining of brain slices. It counts as in vivo, Sprague Dawley rats. The conditions noted are these: single rats, 12 h ischemia. The protocol:
Experimental conditions: Sprague Dawley rats weighing about 250-300 g with a brain tissue volume of 1.5 mL were used. The subjects were divided into eight groups, and each group had eight rats. […] Efficacy validation: two hours after ECS administration and one hour after intraperitoneal injection, a permanent focal cerebral ischemia model was made by middle cerebral artery occlusion (MCAO). The brains of rats from each group were removed 12 hours after cerebral ischemia. The brain slices were obtained by cutting the brain at every 2 mm (5 slices from each rat). Then the slices were stained with 2,3,5-triphenyl-2H-tetrazolium chloride (TTC) for evaluating the cerebral infarction size and the effectiveness of administration of the drug via ECS.

Each structure is given as a SMILES string. Where “and” joins values, the source holds several entries; their conditions need not be identical. Identical values can stand only once.

`C[N+](C)(C)CCOP(=O)(O)OP(=O)([O-])OC[C@H]1O[C@@H](n2ccc(N)nc2=O)[C@H](O)[C@@H]1O` [CDPC, citicoline]: the Infarction percentages runs as follows: (CDPC 25 mM via brain ECS (caudate nucleus), 0.2 μL/min, 2 μL, MCAO 2 h after administration) 33.7% and 5.6% and 18.6% and 34.1% and 38.1% and 42% and 24.9% and 22.8%; (CDPC 40 mM via brain ECS, 0.2 μL/min, 2 μL, MCAO 2 h after administration) 2.3% and 6.7% and 2.2% and 2.9% and 6.9% and 3.6% (2×) and 5.3%; (CDPC 50 mM via brain ECS, 0.2 μL/min, 2 μL, MCAO 2 h after administration) 1.3% and 5.7% and 3% and 1.7% and 3.7% and 4.8% and 5% and 7.3%; (CDPC 60 mM via brain ECS, 0.2 μL/min, 2 μL, MCAO 2 h after administration) 2.3% and 3.7% and 3.6% and 1.7% and 6.7% and 8.8% and 3.5% and 4.2%; (CDPC 75 mM via brain ECS, 0.2 μL/min, 2 μL, MCAO 2 h after administration) 31.2% and 35.8% and 4.0% and 37.8% and 16.1% and 29.8%; (CDPC 100 mM via brain ECS, 0.2 μL/min, 2 μL, MCAO 2 h after administration) 29.1% and 35.9% and 20.7% and 8.1% and 38.8% and 20.6% and 11.5% and 41.6%. Moreover, the Infarction percentages was 24.8% and 51.2% and 14.8% and 20% and 26.7% and 18.1% and 48.3% and 33.4% (CDPC 245 mM via brain ECS, 0.2 μL/min, 2 μL, MCAO 2 h after administration); 30.6% and 26.4% and 10.7% and 5.2% and 25.5% and 27.0% and 33.9% and 32.3% (CDPC 1000 mM intraperitoneal, 1 mL (about 4 mL/kg), 1 mL/min, MCAO 1 h after administration).
